Key:
thrombin [1] = biological target: T1, thrombin (Homo sapiens, UniProt P00734); conditions: reversible and irreversible inhibitors of thrombin; cited from earlier work
thrombin [2] = biological target: T1, thrombin; test: thrombin time determination; type: biochemical
Experimental: The activity of the product as a thrombin inhibitor is measured by determination of the thrombin time essentially as described in European Patent Application 293 881, page 51. Using a 1 micromolar concentration of inhibitor, a mean thrombin time of 114 seconds is found, compared with 16 seconds in the absence of inhibitor.

| Compound | inhibition in vitro (thrombin [1]) | thrombin inhibitor (in words) (thrombin [2]) | mean thrombin time (thrombin [2]; 1 micromolar concentration of inhibitor, 16 seconds in the absence of inhibitor) |
| --- | --- | --- | --- |
| NC(N)=NCCC[C@H](NC(=O)[C@@H]1CCCN1C(=O)[C@H](N)Cc1ccccc1)C(=O)CCl [D-Phe-Pro-Arg-CH2 Cl] | ~10^-8 M |  |  |
| N=C(N)NCCC[C@@H](C=O)NC(=O)[C@@H]1CCCN1C(=O)[C@H](N)Cc1ccccc1 [D-Phe-Pro-Arginal] | ~10^-8 M |  |  |
| Z-D-Phe-Pro-BOMe-OPin [formula XII] |  | strong thrombin inhibitor | 114 s |

From patent publication US6313096A, “Inhibitors of trypsin-like enzymes” (Trigen Limited, priority 2000, dated 2001)
